Patent US6903113B2, “Urea substituted imidazopyridines” (3M Innovative Properties Company, priority 2000, dated 2005)

Experiments:
[1] = tested on: tumor necrosis factor (α); assay: Cytokine Induction in Human Cells: tumor necrosis factor (α) by ELISA or IGEN Assay; assay type: cell-based; set-up: key to Lowest Effective Concentration Tumor Necrosis Factor: A “*” indicates that no induction was seen at any of the tested concentrations; conditions: human PBMC, 18 to 24 hours incubation, compounds generally tested at 30-0.014 μM; for minimal effective concentration: read-out: Lowest Effective Concentration Tumor Necrosis Factor
Excerpt: (§1) An in vitro human blood cell system is used to assess cytokine induction. Activity is based on the measurement of interferon and tumor necrosis factor (α) (IFN and TNF, respectively) secreted into culture media as described by Testerman et. al. In “Cytokine Induction by the Immunomodulators Imiquimod and S-27609”, Journal of Leukocyte Biology, 58, 365-372 (September, 1995).
(§2) Whole blood from healthy human donors is collected by venipuncture into EDTA vacutainer tubes. Peripheral blood mononuclear cells (PBMC) are separated from whole blood by density gradient centrifugation using Histopaque®-1077. Blood is diluted 1:1 with Dulbecco's Phosphate Buffered Saline (DPBS) or Hank's Balanced Salts Solution (HBSS). The PBMC layer is collected and washed twice with DPBS or HBSS and resuspended at 4×10^6 cells/mL in RPMI complete. The PBMC suspension is added to 48 well flat bottom sterile tissue culture plates (Costar, Cambridge, Mass. or Becton Dickinson Labware, Lincoln Park, N.J.) containing an equal volume of RPMI complete media containing test compound.
(§3) The compounds are solubilized in dimethyl sulfoxide (DMSO). The DMSO concentration should not exceed a final concentration of 1% for addition to the culture wells. The compounds are generally tested at concentrations ranging from 30-0.014 μM.
(§4) The solution of test compound is added at 60 μM to the first well containing RPMI complete and serial 3 fold dilutions are made in the wells. The PBMC suspension is then added to the wells in an equal volume, bringing the test compound concentrations to the desired range (30-0.014 μM). The final concentration of PBMC suspension is 2×10^6 cells/mL. The plates are covered with sterile plastic lids, mixed gently and then incubated for 18 to 24 hours at 37° C. in a 5% carbon dioxide atmosphere.
(§5) Following incubation the plates are centrifuged for 10 minutes at 1000 rpm (˜200×g) at 4° C. The cell-free culture supernatant is removed with a sterile polypropylene pipet and transferred to sterile polypropylene tubes. Samples are maintained at −30 to −70° C. until analysis. The samples are analyzed for interferon (α) by ELISA and for tumor necrosis factor (α) by ELISA or IGEN Assay
Tumor necrosis factor (α) (TNF) concentration is determined using ELISA kits available from Biosource International, Camarillo, Calif. Alternately, the TNF concentration can be determined by Origen® M-Series Immunoassay and read on an IGEN M-8 analyzer from IGEN International, Gaithersburg, Md. The immunoassay uses a human TNF capture and detection antibody pair from Biosource International, Camarillo, Calif. Results are expressed in pg/mL.
(§6) The table below lists the lowest concentration found to induce interferon and the lowest concentration found to induce tumor necrosis factor for each compound.

interferon (α) = assay: Cytokine Induction in Human Cells: interferon (α) by ELISA; assay type: cell-based; set-up: key to Lowest Effective Concentration Interferon: A “*” indicates that no induction was seen at any of the tested concentrations; conditions: human PBMC, 18 to 24 hours incubation, compounds generally tested at 30-0.014 μM; for minimal effective concentration: read-out: Lowest Effective Concentration Interferon
Excerpt: as §1, §2, §3, §4, §5
Interferon (α) concentration is determined by ELISA using a Human Multi-Species kit from PBL Biomedical Laboratories, New Brunswick, N.J. Results are expressed in pg/mL.
as §6

SMILES	Lowest Effective Concentration Tumor Necrosis Factor [1]	Lowest Effective Concentration Interferon (interferon (α))	minimal effective concentration [1] [µM]	minimal effective concentration (interferon (α)) [µM]
CC(=O)c1cccc(NC(=O)NCCCCn2cnc3c(N)nc(C)c(C)c32)c1 [Example 23]	*	*		
CCOCc1nc2c(N)nc(C)c(C)c2n1CCC1CCN(C(=O)NC2CCCCC2)CC1 [Example 58]			3.33	0.37
CCOCc1nc2c(N)nc(C)cc2n1CCCCNC(=S)Nc1ccccc1 [Example 50]			3.33	0.37
Cc1nc(N)c2ncn(CCCCNC(=O)NC3CCCCC3)c2c1C [Example 20]	*			30
CCOCc1nc2c(N)nc(C)c(C)c2n1CCC1CCN(C(=O)Nc2cccc(SC)c2)CC1 [Example 64]			1.11	0.37
CCOCc1nc2c(N)nc(C)cc2n1CCCCNC(=O)Nc1cccc(C#N)c1 [Example 41]			30	10
Cc1nc(N)c2ncn(CCCCNC(=O)N3CCOCC3)c2c1C [Example 27, N-[4-(4-amino-6,7-dimethyl-1H-imidazo[4,5-c]pyridin-1-yl)butyl]morpholin-4-ylcarboxamide]	*	*		
CCOCc1nc2c(N)nc(C)cc2n1CCCCNC(=S)NC(=O)c1ccco1 [Example 53, N-{4-[4-amino-2-(ethoxymethyl)-6-methyl-1H-imidazo[4,5-c]pyridin-1-yl]butyl}-N′-(2-furoyl)thiourea]			3.33	0.37
Cc1ccc(S(=O)(=O)NC(=O)NCCCCn2cnc3c(N)nc(C)c(C)c32)cc1 [Example 30]	*	*		
Cc1nc(N)c2ncn(CCCCNC(=O)NC(C)C)c2c1C [Example 16]	*	*		
CCOCc1nc2c(N)nc(C)c(C)c2n1CCC1CCN(C(=O)N2CCOCC2)CC1 [Example 66, 2-(ethoxymethyl)-6,7-dimethyl-1-{2-[1-(morpholin-4-ylcarbonyl)piperidin-4-yl]ethyl}-1H-imidazo[4,5-c]pyridin-4-amine]			10	1.11
CCOCc1nc2c(N)nc(C)cc2n1CCCCNC(=S)Nc1ccc(OC)cc1 [Example 52]			3.33	0.37
CCOCc1nc2c(N)nc(C)c(C)c2n1CCC1CCN(C(=O)Nc2cccc(C#N)c2)CC1 [Example 60]			1.11	0.37
CCOCc1nc2c(N)nc(C)cc2n1CCCCNC(=O)NS(=O)(=O)c1ccc(C)cc1 [Example 48]	*	*		
CCOCc1nc2c(N)nc(C)c(C)c2n1CCC1CCN(C(=O)NCC(=O)OCC)CC1 [Example 59]			10	1.11
CCOCc1nc2c(N)nc(C)c(C)c2n1CCC1CCN(C(=O)Nc2ccc(N(C)C)cc2)CC1 [Example 63]			1.11	0.014
CCCCc1nc2c(N)nc(C)c(C)c2n1CCCCNC(=S)Nc1ccccc1 [Example 5, N-[4-(4-Amino-2-butyl-6,7-dimethyl-1H-imidazo[4,5-c]pyridin-1-yl)butyl]-N′-phenylthiourea Hydrate]			0.12	0.01
CCOCc1nc2c(N)nc(C)cc2n1CCCCNC(=O)N[C@@H]1C[C@H]1c1ccccc1 (relative stereo) [Example 46, N-{4-[4-amino-2-(ethoxymethyl)-6-methyl-1H-imidazo[4,5-c]pyridin-1-yl]butyl}-N′-[(1R*,2S*)-2-phenylcyclopropyl]urea]			10	3.33
CCCCNC(=O)N1CCC(CCn2c(COCC)nc3c(N)nc(C)c(C)c32)CC1 [Example 56]			3.33	1.11

SMILES	Lowest Effective Concentration Tumor Necrosis Factor [1]	Lowest Effective Concentration Interferon (interferon (α))	minimal effective concentration [1] [µM]	minimal effective concentration (interferon (α)) [µM]
CCOCc1nc2c(N)nc(C)cc2n1CCCCNC(=S)NCCc1ccccc1 [Example 51]			10	3.33
CCOCc1nc2c(N)nc(C)c(C)c2n1CCC1CCN(C(=S)Nc2ccccc2)CC1 [Example 71]			3.33	0.37
Cc1nc(N)c2ncn(CCCCNC(=O)Nc3ccccc3)c2c1C [Example 19]			30	10
CCOCc1nc2c(N)nc(C)c(C)c2n1CCC1CCN(C(=O)Nc2cccc(C(C)=O)c2)CC1 [Example 62]			1.11	0.37
CCOCc1nc2c(N)nc(C)c(C)c2n1CCC1CCN(C(=O)Nc2ccc(OC)cc2OC)CC1 [Example 65]			1.11	0.37
CCOCc1nc2c(N)nc(C)c(C)c2n1CCC1CCN(C(=S)NC(=O)c2ccco2)CC1 [Example 74, N-[(4-{2-[4-amino-2-(ethoxymethyl)-6,7-dimethyl-1H-imidazo[4,5-c]pyridin-1-yl]ethyl}piperidin-1-yl)carbonothioyl]-2-furamide]			1.11	0.37
CCCCc1nc2c(N)nc(C)c(C)c2n1CCCCNS(=O)(=O)c1ccc(F)cc1 [Example 3, N-[4-(4-Amino-2-butyl-6,7-dimethyl-1H-imidazo[4,5-c]pyridin-1-yl)butyl]-4-fluorobenzenesulfonamide Hydrate]			0.37	0.01
Cc1nc(N)c2ncn(CCCCNC(=S)NCCc3ccccc3)c2c1C [Example 34]	*	*		
CCOCc1nc2c(N)nc(C)c(C)c2n1CCC1CCN(C(=O)NC(C)(C)C)CC1 [Example 55]			10	3.33
CCOCc1nc2c(N)nc(C)cc2n1CCCCNC(=O)Nc1cccc(SC)c1 [Example 44]			10	3.33
CCOCc1nc2c(N)nc(C)c(C)c2n1CCC1CCN(C(=O)NS(=O)(=O)c2ccc(Cl)cc2)CC1 [Example 70]	*			10
CCOCc1nc2c(N)nc(C)cc2n1CCCCNC(=O)Nc1cccc(C(C)=O)c1 [Example 42]			10	10
CCOCc1nc2c(N)nc(C)c(C)c2n1CCC1CCN(C(=O)N[C@@H]2C[C@H]2c2ccccc2)CC1 (relative stereo) [Example 67, 4-{2-[4-amino-2-(ethoxymethyl)-6,7-dimethyl-1H-imidazo[4,5-c]pyridin-1-yl]ethyl}-N-[(1R*,2S*)-2-phenylcyclopropyl]piperidine-1-carboxamide]			3.33	1.11
CCOCc1nc2c(N)nc(C)c(C)c2n1CCC1CCN(C(=O)NS(=O)(=O)c2ccccc2)CC1 [Example 69]	*			3.33
Cc1nc(N)c2ncn(CCCCNC(=O)N[C@@H]3C[C@H]3c3ccccc3)c2c1C (relative stereo) [Example 28, N-[4-(4-amino-6,7-dimethyl-1H-imidazo[4,5-c]pyridin-1-yl)butyl]-N′-[(1R*,2S*)-2-phenylcyclopropyl]urea]	*	*		
CCOCc1nc2c(N)nc(C)c(C)c2n1CCC1CCN(C(=S)NCCc2ccccc2)CC1 [Example 72]			1.11	0.37
CSc1cccc(NC(=O)NCCCCn2cnc3c(N)nc(C)c(C)c32)c1 [Example 25]		*	3.33	
CCOCc1nc2c(N)nc(C)c(C)c2n1CCC1CCN(C(=O)NC(C)C)CC1 [Example 54]			3.33	1.11
